# Like-named read-outs stand apart in the source and are kept apart here. Bridge positions count the residues as written; N and C are the ends. Square brackets hold non-standard residues; d marks the D form. Peptide text beside a SMILES is read from it. * marks the point of attachment. d(aThr) = C[C@@H](O)[C@@H](N)C(=O)O; Palmitoyl = CCCCCCCCCCCCCCCC(=O)*; dPip = O=C(O)[C@H]1CCCCN1; hSer = N[C@@H](CCO)C(=O)O; Dap = NC[C@H](N)C(=O)O
# Tests used:
# [1] = test system: Bacillus subtilis; experiment: Growth inhibitory zone assay; type: cell-based; settings: mixed with B1 at 50 mM each, 12 hours, room temperature
# Description: The antimicrobial activities of our peptide (B1) in combination with various boron species were tested by the growth inhibitory zone assay (FIG. 26). B1 was mixed with various boron species at 50 mM each (final concentration). These mixtures were then spotted on a lawn of Bacillus subtilis. After 12 hours of incubation at room temperature, combinations effective at inhibiting bacterial growth would appear as a circular zone.
# [2] = test system: Bacillus subtilis; settings: for antimicrobial activity: absence of PBA; for PBA dependence of bacterial growth suppression: with vs without PBA; for MIC: no PBA
# Description: We then investigated the boron dependence of B1 by determining the MIC of B1 across […] of PBA concentrations (0.5 μg/mL to 100 μg/mL, FIG. 4B).
# [3] = test system: Pseudomonas aeruginosa; experiment: Activity spectrum MIC; type: cell-based; settings: PBA 50 μg/mL
# [4] = test system: Escherichia coli; experiment: Activity spectrum MIC; type: cell-based; settings: PBA 50 μg/mL
# [5] = test system: Rhodococcus hoagii; experiment: Activity spectrum MIC; type: cell-based; settings: PBA 50 μg/mL
# [6] = test system: methicillin-resistant strains (MRSA); experiment: Activity spectrum MIC; type: cell-based, Staphylococcus; settings: PBA 50 μg/mL
# [7] = test system: E. faecalis; experiment: Activity spectrum MIC; type: cell-based; settings: PBA 50 μg/mL
# [8] = test system: B. cereus; experiment: Activity spectrum MIC; type: cell-based; settings: PBA 50 μg/mL
# [9] = test system: Streptococcus species; experiment: Activity spectrum MIC; type: cell-based; settings: PBA 50 μg/mL
# [10] = 31P NMR monitoring of complex formation; type: binding; settings: B1/PBA/C10P 1:2:1, 10% D2O
# Description: NMR experiments were conducted on a Bruker AVIII 400 (400 MHZ) spectrometer. Chemical shifts (δ) are relative to tetramethylsilane, boric acid, and phosphoric acid for ^1H, ^11B, and ^31P spectra, respectively. The ^11B spectrum of PBA (20 μL, 10.0 mg/mL) in 10% D2O (550 μL) was first obtained. Next, C10P (17 μL, 16 mg/mL) was added directly into the NMR tube, and both the ^11B and ^31P spectra were obtained. B1 (1.2 mg, powder) was then added, followed spectra acquisition. Finally, CaCl2) was added to the solution in the NMR tube, so that the final calcium concentration is ˜5 mM. Note that the ^31P spectrum of C10P alone was collected separately.
# Mass spectrometry (MS) and nuclear magnetic resonance (NMR) offered additional evidence of complex formation at the molecular level. High-resolution native electrospray ionization mass spectrometry (HR-NESI-MS) is commonly used to study noncovalent interactions.^[15] Using HR-NESI-MS, we observed the expected m/z for binary, ternary, and quaternary complexes at both the positive and negative modes (FIGS. 5B and 5C, FIGS. 15-18 and FIGS. 23-24). We then performed phosphorous (^31P) and boron (^11B) NMR to monitor the complex formation process. […] When B1 was added to the C10P/PBA mixture, no phosphorous signal could be detected at δ 3 or greater, and two new peaks at δ 0.4 and 0.0 appeared. […]
# [11] = test system: Staphylococcus species; experiment: Activity spectrum MIC; type: cell-based; settings: PBA 50 μg/mL
# [12] = test system: HEK293T cells; experiment: cells; type: cell-based; settings: 24 h
# Description: HEK293T cells were cultured in Dulbecco's Modified Eagle's Medium supplemented with 10% fetal bovine serum and 1% Antibiotic antimycotic at 37° C. under humidified atmosphere and 5% CO2. Cytotoxicity assays began by seeding 2×10^4 HEK293T cells per well in a 96-well plate. Cells were given 20 to 24 h to adhere, washed with fresh medium, and then a 2-fold dilution series of the compounds of interest were added. The highest concentration tested for S1, B1, and PBA were 128, 128, and 1,280 μg/mL, respectively; for the B1-plus-PBA series, the PBA concentration was held constant at 5 μg/mL while the B1 concentration varied. After incubation for 24 h, the medium was discarded, the cells rinsed with PBS buffer, and 100 μL of 0.5 mg/mL MTT in […] was added to each well. The plate was incubated for 2 h before discarding the MTT solution. The cells were wash with PBS, and then the resulting purple crystals were dissolved by DMSO (100 μL per well). Absorbance at 570 nm for each well was recorded, and cell viability (%) was calculated as the ratio of the absorbance the compound-treated well vs. the no-compound well. This assay was performed in triplicate.
# [13] = test system: vancomycin-resistant strains (VRE); experiment: Activity spectrum MIC; type: cell-based, Enterococcus; settings: PBA 50 μg/mL
smiles,measurement,setting,value
OB(O)c1ccc(F)cc1 [4-fluorophenylboronic acid],"growth inhibitory zone, boron species in combination with B1",[1],effective
CSc1ccc(B(O)O)cc1 [4-(methylthio) phenylboronic acid],"growth inhibitory zone, boron species in combination with B1",[1],effective
OB(O)c1cccc(O)c1 [3-hydroxylphenylboronic acid],"growth inhibitory zone, boron species in combination with B1",[1],effective
Cc1ccc(B(O)O)cc1 [4-tolylboronic acid],"growth inhibitory zone, boron species in combination with B1",[1],effective
OB(O)c1ccc(O)cc1 [4-hydroxylphenylboronic acid],"growth inhibitory zone, boron species in combination with B1",[1],effective
OB(O)c1cccnc1 [3-pyridylboronic acid],"growth inhibitory zone, boron species in combination with B1",[1],effective
"OB(O)c1cc(C(F)(F)F)cc(C(F)(F)F)c1 [3,5-(bis(trifluoromethyl)phenyl) boronic acid]","growth inhibitory zone, boron species in combination with B1",[1],effective
"CCCCCCCCCCCCCCCC(=O)N[C@@H](CO)C(=O)N[C@H]1CNC(=O)[C@@H]2CCCN2C(=O)[C@H]([C@@H](C)CC)NC(=O)[C@@H]([C@@H](C)O)NC(=O)CNC(=O)[C@H](CCO)NC(=O)CNC(=O)[C@H](CC(=O)O)NC(=O)CNC(=O)[C@H]2CCCCN2C1=O [B3, Ser-Dap-Pip-Gly-Asp-Gly-Hse-Gly-Thr-Ile-Pro] (Palmitoyl-S[Dap][dPip]GDG[hSer]G[d(aThr)]IP; lactam 2-C)",antimicrobial activity,[2]; no calcium supplements,none of them were active
same,PBA dependence of bacterial growth suppression,[2],only able to suppress bacterial growth in the presence of PBA
CCCCCCCCCCCCCCCC(=O)N[C@@H](CCO)C(=O)N[C@H]1CNC(=O)[C@@H]2CCCN2C(=O)[C@H]([C@@H](C)CC)NC(=O)[C@@H]([C@@H](C)O)NC(=O)CNC(=O)[C@H](CO)NC(=O)CNC(=O)[C@H](CC(=O)O)NC(=O)CNC(=O)[C@H]2CCCCN2C1=O [B4] (Palmitoyl-[hSer][Dap][dPip]GDGSG[d(aThr)]IP; lactam 2-C),antimicrobial activity,[2]; 5 mM calcium,weak antimicrobial activity
same,antimicrobial activity,[2]; no calcium supplements,none of them were active
same,effect of calcium concentration on MIC,"[2]; calcium 5 to 0.5 mM, PBA present",unaffected
CCCCCCCCCCCCCCCC(=O)N[C@@H](CO)C(=O)N[C@H]1CNC(=O)[C@@H]2CCCN2C(=O)[C@H]([C@@H](C)CC)NC(=O)[C@@H]([C@@H](C)O)NC(=O)CNC(=O)[C@H](CO)NC(=O)CNC(=O)[C@H](CC(=O)O)NC(=O)CNC(=O)[C@H]2CCCCN2C1=O [B1] (Palmitoyl-S[Dap][dPip]GDGSG[d(aThr)]IP; lactam 2-C),antibacterial activity,[3],no activity
same,antibacterial activity,[4],no activity
same,growth inhibition,[5],inhibited the growth
same,susceptibility,[6],similarly susceptible
same,growth inhibition,[7],inhibited the growth
same,dependence of antibacterial activity on calcium,"[2]; LB, PBA 50 μg/mL (0.41 mM), FIG. 4A",completely independent of calcium
same,antimicrobial activity,[2]; no calcium supplements,none of them were active
same,response of antimicrobial activity to varying calcium concentration,[2]; fixed PBA 100 μg/mL (0.82 mM),no change
same,antimicrobial activity when no calcium was added,"[2]; fixed PBA 100 μg/mL (0.82 mM), no calcium added",equally effective
same,PBA dependence of bacterial growth suppression,[2],only able to suppress bacterial growth in the presence of PBA
same,growth inhibition,[8],inhibited the growth
same,growth inhibition,[9],inhibited the growth
same,C10P sequestration,[10],sequestered all C10P
same,growth inhibition,[11],inhibited the growth
same,IC50,[12],greater than 128 μg/mL
same,susceptibility,[13],similarly susceptible
"OB(O)c1ccccc1 [PBA, phenylboronic acid, reference compound]","growth inhibitory zone, boron species in combination with B1",[1],effective
same,IC50,"[12]; Homo sapiens, HEK-293T",> 128 µg/mL
Nc1ccc(B(O)O)cc1 [4-aminophenylboronic acid],"growth inhibitory zone, boron species in combination with B1",[1],effective
OB(O)c1ccncc1 [4-pyridylboronic acid],"growth inhibitory zone, boron species in combination with B1",[1],effective
COC(=O)c1ccc(B(O)O)cc1 [4-methoxycarbonyl phenylboronic acid],"growth inhibitory zone, boron species in combination with B1",[1],effective
"CCCCCCCCCCCCCCCC(=O)N[C@@H](CC(=O)O)C(=O)N[C@H]1CNC(=O)[C@@H]2CCCN2C(=O)[C@H]([C@@H](C)CC)NC(=O)[C@@H]([C@@H](C)O)NC(=O)CNC(=O)[C@H](CC(=O)O)NC(=O)CNC(=O)[C@H](CC(=O)O)NC(=O)CNC(=O)[C@H]2CCCCN2C1=O [S1, reference compound] (Palmitoyl-D[Dap][dPip]GDGDG[d(aThr)]IP; lactam 2-C (inferred))",potency in the presence of PBA,[2]; PBA 100 μg/mL (0.82 mM),dramatically decreased
same,MIC,[2]; [Ca2+]=0.5 mM,16 µg/mL
same,MIC,[2]; calcium 5 mM,4 µg/mL
O=Cc1ccccc1B(O)O [2-formylphenylboronic acid],"growth inhibitory zone, boron species in combination with B1",[1],effective
COc1ccc(B(O)O)cc1 [4-methoxyphenylboronic acid],"growth inhibitory zone, boron species in combination with B1",[1],effective
"Cc1cc(C)cc(B(O)O)c1 [3,5-dimethylphenylboronic acid]","growth inhibitory zone, boron species in combination with B1",[1],effective
N#Cc1ccc(B(O)O)cc1 [4-cyanophenylboronic acid],"growth inhibitory zone, boron species in combination with B1",[1],effective

# From patent US20250177537A1, “AN ANTIBIOTIC, METHOD OF PREPARATION AND METHOD OF TREATMENT THEREOF” (National Taiwan University, priority 2023, published 2025)
